According to article PMC4204617 (Frontiers in Cellular Neuroscience, 2014):
Entries after “also recorded” stand apart in the source; their conditions may differ. Where no end group is shown, it is not given here.

Legend:
hemichannels = details: cited from earlier work; for Hemichannel-only effect: ref not given
Excerpt: Gap junction channels form junctional plaques that are composed of two docked hemichannels oligomerized from six Cx protein subunits. […] Stehberg and collaborators have used TAT-L2 for local injection in the amygdala in in vivo animal studies on fear memory (Stehberg et al., [2012]).

[1] = system: Cx43 hemichannels in astrocytes; details: hippocampal slices; ref Rouach et al., 2008, Supplementary Data Figure S5; cited from earlier work
Method: The inhibitory effect of Gap19 in situ was then tested by performing the Etd^+ uptake assay in acute hippocampal brain slices from GFAP-eGFP transgenic mice. […] This increase ... || Gap19 is a peptide that corresponds to a sequence on the cytoplasmic loop (CL) of Cx43. Its sequence is part of the L2 domain that is involved in interactions of the CL with the CT-tail of Cx43. […] This differential effect is most probably the consequence of distinct channel configurations of hemichannels as compared ...

Gap19 = Gap19 (UniProt P17302); details: cited from earlier work
Cx43 hemichannels [2] = target: T1, Cx43 hemichannels (Mus musculus, UniProt P23242); experiment: Glutamate-triggered ATP release in cultured cortical astrocytes; format: cell-based, mouse (OF1); design: endogenous in cells; host or cells: primary cortical astrocytes from newborn OF1 mice; details: primary cortical astrocyte cultures; glutamate 100 μM, 15 min; Gap19 30 min pre-incubation; n = 6 independent experiments; read-out: IC50 / half-maximal effect concentration for glutamate-triggered ATP release
Method: (§1) Primary astrocyte cultures were prepared from the cortex of newborn (1–2 days) OF1 mice as described previously (Meme et al., [2006]). Briefly, cells were seeded into 100-mm diameter plastic dishes (Nunc, Roskilde, Denmark) at the density of 3 × 10^6 cells/dish in DMEM (Sigma-Aldrich, St-Louis MO, USA), supplemented with penicillin (5 U/ml), streptomycin (5 μg/ml) (Invitrogen, Carlsbad, CA, USA) and 10% FCS (Hyclone, Logan, UT, USA). The medium was changed twice a week. When cells reached confluence, around 10 days in vitro (DIV), they were harvested with trypsin-EDTA (Invitrogen). […]
(§2) The data are expressed as mean ± s.e.m., with “n” denoting the number of independent experiments. […] In experiments where the effects of different treatments were assessed on normalized data, non-parametric ANOVA Kruskal-Wallis tests were performed. […] Unless stated otherwise, significance as compared to control condition based on the raw data (before normalization) was assessed by two-tailed Wilcoxon signed-ranked tests. […]
While in vivo astrocytes express two major Cxs, Cx43 and Cx30, astrocytes in primary culture offer the advantage that only one of them is expressed, namely Cx43 (Giaume et al., [1991a]). Indeed, Cx30 is detected in astrocytes only either after 10–11 weeks of solo-culture (Kunzelmann et al., [1999]) or in 3 week-old astrocytes after 1 week of co-culture with neurons (Koulakoff et al., [2008]). […]

Cx43 hemichannels [3] = target: T1, Cx43 hemichannels; experiment: Etd+ uptake in cultured astrocytes treated with TNF-α/IL-1β; format: cell-based, mouse (OF1); design: endogenous in cells; host or cells: primary cortical astrocytes from newborn OF1 mice; details: astrocyte cultures, "in the 250 μM range", read-out: Half-maximal effect concentration, hemichannels opened with TNF-α/IL-1β
Method: as §1
Hemichannel activity in cultured astrocytes was induced either by treatment with two pro-inflammatory cytokines, TNF-α and IL-1β (Retamal et al., [2007]) or by exposing the cells to a Ca^2+-free solution (Stout et al., [2002]). […] Captured images of Etd^+ uptake were analyzed with the Image J program (NIH software).
as §2

Cx43 hemichannels [4] = target: T1, Cx43 hemichannels; experiment: Etd+ uptake in astrocytes of acute hippocampal slices, Ca2+-free solution; format: cell-based, mouse (GFAP-eGFP); design: performing the Etd^+ uptake assay in acute hippocampal brain slices from GFAP-eGFP transgenic mice; from tissue; host or cells: acute hippocampal slices of GFAP-eGFP mice (GFP-positive astrocytes); details: zero extracellular Ca2+, "in the 250 μM range", read-out: Half-maximal effect concentration, zero extracellular Ca2+ in brain slices
Method: GFAP-eGFP mice (Nolte et al., [2001]) were decapitated and their brains were rapidly removed. Hippocampi were dissected and placed in ice-cold artificial cerebrospinal fluid (ACSF) equilibrated with 95% O2–5% CO2. Transverse hippocampal slices (300–400 μm thick) were cut on a vibroslicer (Leica VT 1000S, Wetzlar, Germany) and transferred to a holding chamber where they rested on a nylon mesh, submerged in oxygenated ACSF at room temperature for a stabilization period of 45 min before recodings. The ACSF solution contained in mM: NaCl 134; KCl 2.8; NaHCO3 29; NaH2PO4 1.1; glucose 12; MgSO4 1.5; CaCl2 2.5.
In slices derived from GFAP-eGFP mice, astrocytes were identified by GFP fluorescence and hemichannel activity was investigated. […] In order to be sure that we were quantifying Etd^+ uptake in astrocytes, in this study hemichannel activity was only considered in GFP-positive cells. […] Fluorescence was quantified in arbitrary units (AU), Image J program (NIH software). Dye uptake intensity was evaluated as the difference (F—F0) between the fluorescence (F) from astrocytes (20—30 cells per slice) and the background fluorescence (F0) measured in the same field where no labeled cells were detected. […]
The data are expressed as mean ± s.e.m., with “n” denoting the number of independent experiments. […]

[5] = Brain TAT immunostaining 1 h after intra-carotid injection; format: in vivo, mouse (C57Bl6)
Method: Two different approaches were used for in vivo delivery of TAT-Gap19. For acute experiments, 4 months old C57Bl6 male mice were subjected to intra-carotid injection of 45 mg/kg TAT-Gap19 (GenScript, Pistcataway, NJ, US) dissolved in saline. After 1 h the mice were deeply anesthetized with sodium pentobarbital (120 mg/kg intraperitoneally) and were transcardially perfused with cold ice phosphate-buffered saline (PBS) followed by perfusion with 10% formalin (Sigma-Aldrich, Oakville, Canada). Brains were removed and stored in 10% formalin and the next day were cryoprotected in 30% sucrose in PBS solution. Cortical brain sections, 10 μm thick, were collected and mounted sequentially on glass microscope slides. Immunohistochemistry was performed on the sections as previously described (Ozog et al., [2002]; Nakase et al., [2004]; Kozoriz et al., [2010]). Ten μm thick glass mounted sections were rehydrated in PBS and then blocked in PBS pH 7.4 containing 0.3% Triton-X-100 (TX100, Fisher Scientific) and 2% bovine serum albumin (BSA; Invitrogen, Canada) for 1 h, and incubated overnight in PBS containing 1.0% BSA, 0.3% TX100 and anti-TAT primary antibody (1/100 dilution; Cat # CB0888, Cell Applications, Inc., USA). The following day, the slices were washed with PBS (3 × 10 min) and subsequently incubated for 1 h with secondary antibody (anti-mouse IgG tagged with Alexa 488; Molecular Probes, USA) in PBS containing 1% BSA, 0.3% TX100. Slices were then rinsed 3 times for 10 min with PBS and mounted with ProLong Gold antifade reagent with DAPI. Images were obtained using the same exposure times on a Ziess Axiophot Epifluorescent microscope, Zeiss Canada, Toronto).

T1 sequence (P23242 whole entry): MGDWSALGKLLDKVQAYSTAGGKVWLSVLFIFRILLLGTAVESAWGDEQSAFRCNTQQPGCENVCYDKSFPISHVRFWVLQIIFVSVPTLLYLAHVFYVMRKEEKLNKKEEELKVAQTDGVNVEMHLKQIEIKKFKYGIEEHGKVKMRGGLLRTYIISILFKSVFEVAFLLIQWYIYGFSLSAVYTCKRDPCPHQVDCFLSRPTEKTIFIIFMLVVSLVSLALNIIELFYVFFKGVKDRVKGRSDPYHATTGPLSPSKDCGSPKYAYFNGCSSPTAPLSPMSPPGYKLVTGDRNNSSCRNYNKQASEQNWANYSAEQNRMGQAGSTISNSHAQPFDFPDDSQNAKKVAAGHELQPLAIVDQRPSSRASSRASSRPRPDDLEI
Sequence of Gap19 (P17302 whole entry, looked up): as the sequence (P23242 whole entry) above, with E124D, V164I, R243K, T251S, P253A, S257A, P263Q, S341N, A344S, V347L counted along it
Sequence of Connexin43 C-terminal tail (P17302 232-382): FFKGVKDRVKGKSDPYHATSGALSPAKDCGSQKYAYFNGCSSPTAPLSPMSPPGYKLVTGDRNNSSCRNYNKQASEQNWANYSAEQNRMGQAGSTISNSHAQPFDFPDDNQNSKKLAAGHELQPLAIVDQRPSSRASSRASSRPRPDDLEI

CC1(C)[C@@H](OC(=O)CCC(=O)O)CC[C@]2(C)[C@H]3C(=O)C=C4[C@@H]5C[C@@](C)(C(=O)O)CC[C@]5(C)CC[C@@]4(C)[C@]3(C)CC[C@@H]12 [carbenoxolone]
Discrimination between gap junctions and hemichannels (hemichannels; ref not printed at this statement (nearby: Takeuchi et al., 2011)): poorly discriminate between gap junctions and hemichannels | Block of hemichannel activity induced by calcium-free solution [1]: can be inhibited by carbenoxolone in hippocampal slices; also recorded: blocks hemichannel activity induced by a calcium free solution

[Gd+3] [gadolinium (Gd^3+), gadolinium]
Hemichannel-only effect (hemichannels): supposed to affect only hemichannels

[La+3] [lanthanum (La^3+), lanthanum]
Hemichannel-only effect (hemichannels): supposed to affect only hemichannels

Connexin43 C-terminal tail (from UniProt P17302)
Kd (Gap19): 2.5 µM

KQIEIKKFK [Gap19, KQIEIKKFK]
IC50 (Cx43 hemichannels [2]): 142 µM | IC50 (Cx43 hemichannels [3]): ~250 µM | IC50 (Cx43 hemichannels [4]): ~250 µM

YGRKKRRQRRRKQIEIKKFK [TAT-Gap19, YGRKKRRQRRR-KQIEIKKFK]
TAT immunoreactivity in brain, 1 h after carotid injection ([5]; 45 mg/kg intra-carotid, 4 months old male mice, 1 h, anti-TAT antibody, compared with vehicle (PBS)): readily detected throughout the brain; also recorded: clear TAT immunoreactivity | TAT peptide in GFAP-positive astrocytes (double labeling anti-TAT/anti-GFAP) ([5]; 45 mg/kg intra-carotid, 1 h, cortex): some GFAP-positive astrocytes (white arrows) have taken up the TAT peptide; also recorded: reaches GFAP-positive astrocytes, however, several TAT-positive cells are apparently not GFAP-positive | Blood-brain barrier crossing ([5]; in vivo injection, immunostaining for TAT moiety, intra-carotid and i.v. experiments taken together): traverses the blood-brain barrier and is retained in the cells; also recorded: can successfully cross the blood-brain barrier
